The text below walks through data of US11464864B2, “Drug-bound compound and use thereof” (priority 2018, dated 2022).

The test system of one assay is HT-29 cells. The assay can be described thus: Measurement of cytotoxicity, MTT assay. The assay is classed as cell-based. The settings on record: Homo sapiens, 48 hours incubation, read-out: IC50 (cell viability, MTT). The protocol: (§1) High glucose Dulbecco's modified Eagle's medium (DMEM), Roswell Park Memorial Institute (RPMI) 1640, Dulbecco's phosphate buffered saline, pH 7.4 (DPBS), fetal bovine serum (FBS), and trypsin/EDTA were obtained from Gibco™ and Thermo Fischer Scientific. Mitotracker and Lysotracker were obtained from Invitrogen Inc. (USA). 3-(4,5-Dimethyl-2-thiazolyl)-2,5-diphenyl-2H-tetrazolium bromide (MTT) was purchased from Sigma-Aldrich Korea Ltd. All solutions were prepared using Milli-Q purified water […]. HeLa cells were cultured in 10% (v/v) FBS containing DMEM and penicillin at 37° C. under a wet 5% CO2 environment. For SW480 cells and HT-29 cells, RMPI 1640 medium was used.
(§2) SW480 cells and HT-29 cells (4.5×10^3 cells per well) were seeded in a 96-well plate. After 24 hours, the medium was replaced with serum-free RMPT 1640. […] The treated cells were incubated for 48 hours, washed with cold PBS, and then exposed to MTT in the medium for 4 hours. The medium was replaced with DMSO, and the dissolved formazan dye was quantified by measuring the absorbance at 500 nm. Non-treated cells were measured in the same manner as a control.
For orientation: Tetrazolium assays rely on reduction of a dye to a coloured formazan, in cell work by metabolically active cells.

For a further assay, the system named is SW480 cells. The assay can be described thus: Measurement of cytotoxicity, MTT assay. The settings on record: Homo sapiens, 48 hours incubation, read-out: IC50 (cell viability, MTT). The class given is cell-based. The protocol:
as §1, §2

The test system of assay [1] is HeLa cells. The assay can be described thus: Identification of cell uptake by confocal microscopy. The following applies: 10 µM compound, serum-free DMEM, 37° C., 30 minutes. The class given is cell-based. The protocol:
as §1
(§3) HeLa cells (1×10^5 cells per well) were seeded in a 35 mm cover glass bottom dish (SPL Life Sciences Co., Ltd., Korea) and incubated for 24 hours. […] After incubation at 37° C. for 30 minutes, the cells were washed three times with cold PBS to remove non-internalized samples. Live HeLa cells were examined with a confocal laser scanning microscope (Olympus Fluoview FV1000) equipped with an oil immersion lens (NA 1.30, 40×). […] Each analysis was repeated three times.

For assay [2], the system named is HeLa cells. The protocol:
as §3

Where two headings read alike, the source gives them in different places.

Consider `CC[C@@]1(O)C(=O)OCc2c1cc1n(c2=O)Cc2cc3ccccc3nc2-1` [CPT, Camptothecin], for which the figures for the IC50 in the assay with HT-29 cells and in the assay with SW480 cells were 990 nM and 1530 nM, respectively.

As for “1-O-[20-O—(N-succinyl-6-aminohexanoyl)camptothecin]-2,3,4,5-tetra-O—(N-{bis-[3-N′,N″-bis-(tert-butoxycarbonyl)-guanidino)-propyl]}-6-aminohexanoyl)-6-O-[6-(fluoresceinyl-5-thioureido)-hexanoyl]-D-sorbitol⋅8HCl [compound (10)]”, in the assay on HeLa cells [1], the “Cell uptake (intracellular FITC fluorescence in live cells)” value is “strong green fluorescence appears mainly in the cytoplasm”. In addition, the Intracellular localization entry was “intracellular localization for mitochondria” with HeLa cells [2] (HeLa cells, 10 μM) and “fluorescence exists even inside the nucleus” with HeLa cells [2] (HeLa cells, 20 μM, incubated 30 minutes). Besides, the “Co-localization with Lysotracker (lysosomal marker)” value in the assay with HeLa cells [2] (HeLa cells, Lysotracker 200 nM) was “co-localization was not observed”. In addition, the “Co-localization with Mitotracker (mitochondrial marker)” value in the assay with HeLa cells [2] (live HeLa cells, 10 uM for 30 minutes, then Mitotracker 100 nM for 30 minutes) is “Co-localization was markedly observed”.

Turning to “20-O-[6-(fluoresceinyl-5-thioureido)-hexanoyl)camptothecin [compound (4)]”, the “Cell uptake (intracellular FITC fluorescence in live cells)” value in the assay on HeLa cells [1] was “intracellular fluorescence was not observed”.
